Source: patent US12187728B2 (Raze Therapeutics, Inc., priority 2015, dated 2025)

Target: T1, Human MTHFD2 (Homo sapiens, UniProt P13995)
T1 construct: residues 36-350 in Uniport ID P13995; His6 (N); made in house; host or cells: E. coli
T1 sequence (P13995 36-350): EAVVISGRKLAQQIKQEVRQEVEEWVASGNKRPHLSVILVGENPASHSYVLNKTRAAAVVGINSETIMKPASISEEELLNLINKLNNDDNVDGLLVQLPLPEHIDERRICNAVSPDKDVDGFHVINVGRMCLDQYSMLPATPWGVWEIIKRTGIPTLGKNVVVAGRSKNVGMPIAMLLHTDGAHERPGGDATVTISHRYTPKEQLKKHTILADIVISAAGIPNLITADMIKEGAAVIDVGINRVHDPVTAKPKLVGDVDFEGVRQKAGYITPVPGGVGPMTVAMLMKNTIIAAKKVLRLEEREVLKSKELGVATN
Experiment: MTHFD2 Activity Assay (dehydrogenase activity, diaphorase/resazurin coupled fluorescence)
Format: biochemical
Conditions: inhibitory activity (IC50 and/or binding constant); 0.2 nM MTHFD2, 11 concentrations
Method in brief: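 His6-tagged MTHFD2 (res. 36-350), E. coli-expressed, at 0.2 nM preincubated with compound 15 min in Hepes pH 8.0/MgCl2/KH2PO4 buffer; 70 μM CH2-THF, 1 mM NAD+ added with resazurin/diaphorase, 30 min, EDTA stop. Resorufin fluorescence (ex 525/em 598); IC50 from 11-point 4-parameter fit.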

## Cn1c(NCCO)nc2c1c(=O)n(Cc1ccc(Cl)c(Cl)c1)c(=O)n2C [Example 1, 1-(3,4-dichlorobenzyl)-8-((2-hydroxyethyl)amino)-3,7-dimethyl-1H-purine-2,6(3H,7H)-dione]
  IC50: 1000 to 5000 nM

## Cn1c(C(N)c2cccnc2)nc2c1c(=O)n(Cc1cc3c(Cl)cccc3[nH]1)c(=O)n2C (stereo not shown) [Example 445, 8-[amino(3-pyridyl)methyl]-1-[(4-chloro-1H-indol-2-yl)methyl]-3,7-dimethyl-purine-2,6-dione]
  IC50: 10 to 1000 nM

## Cn1c(NCCC(C)(C)O)nc2c1c(=O)n(Cc1ccc(Cl)c(Cl)c1)c(=O)n2C [Example 45, 1-[(3,4-dichlorophenyl)methyl]-8-[(3-hydroxy-3-methylbutyl)amino]-3,7-dimethyl-2,3,6,7-tetrahydro-1H-purine-2,6-dione]
  IC50: 10 to 1000 nM

## Cn1c(C(O)C2CCC(C(=O)O)CC2)nc2c1c(=O)n(Cc1ccc(Cl)c(Cl)c1)c(=O)n2C (stereo not shown) [Example 270, 4-((1-(3,4-dichlorobenzyl)-3,7-dimethyl-2,6-dioxo-2,3,6,7-tetrahydro-1H-purin-8-yl)(hydroxy)methyl)cyclohexanecarboxylic acid]
  IC50: 1000 to 5000 nM

## Cn1c(CO)nc2c1c(=O)n(Cc1ccc(Cl)c(Cl)c1)c(=O)n2C [Example 100, 1-(3,4-dichlorobenzyl)-8-(hydroxymethyl)-3,7-dimethyl-1H-purine-2,6(3H,7H)-dione]
  IC50: 1000 to 5000 nM

## Cn1c(N[C@H]2CC[C@@H](O)C2)nc2c1c(=O)n(Cc1ccc(C(F)(F)F)cc1)c(=O)n2C (single isomer, unassigned) [Example 133, 8-((1S,3R)-3-hydroxycyclopentylamino)-3,7-dimethyl-1-(4-(trifluoromethyl)benzyl)-1H-purine-2,6(3H,7H)-dione or 8-((1R,3S)-3-hydroxycyclopentylamino)-3,7-dimethyl-1-(4-(trifluoromethyl)benzyl)-1H-purine-2,6(3H,7H)-dione]
  IC50: 1000 to 5000 nM

## Cn1c(N[C@H]2CCC[C@H]2N)nc2c1c(=O)n(Cc1cc3c(Cl)cccc3[nH]1)c(=O)n2C [Example 439, 8-((1S,2R)-2-aminocyclopentylamino)-1-((4-chloro-1H-indol-2-yl)methyl)-3,7-dimethyl-1H-purine-2,6(3H,7H)-dione]
  IC50: 10 to 1000 nM

## Cc1cccc2[nH]c(Cn3c(=O)c4c(nc(Nc5ccncc5)n4C)n(C)c3=O)c(C)c12 [Example 419, 1-((3,4-dimethyl-1H-indol-2-yl)methyl)-3,7-dimethyl-8-(pyridin-4-ylamino)-1H-purine-2,6(3H,7H)-dione]
  IC50: 10 to 1000 nM

## COC(=O)c1ccc(Nc2nc3c(c(=O)n(Cc4cc5c(Cl)cccc5[nH]4)c(=O)n3C)n2C)cn1 [Example 408, Methyl 5-(1-((4-chloro-1H-indol-2-yl)methyl)-3,7-dimethyl-2,6-dioxo-2,3,6,7-tetrahydro-1H-purin-8-ylamino)picolinate]
  IC50: 10 to 1000 nM

## Cc1cccc2cc(Cn3c(=O)c4c(nc(Nc5ccncc5)n4C)n(C)c3=O)[nH]c12 [Example 365, 3,7-dimethyl-1-[(7-methyl-1H-indol-2-yl)methyl]-8-(4-pyridylamino)purine-2,6-dione]
  IC50: 10 to 1000 nM

## Cn1c(Nc2ccc(F)nc2)nc2c1c(=O)n(Cc1cc3c(Cl)cccc3[nH]1)c(=O)n2C [Example 384, 1-((4-chloro-1H-indol-2-yl)methyl)-8-(6-fluoropyridin-3-ylamino)-3,7-dimethyl-1H-purine-2,6(3H,7H)-dione]
  IC50: 10 to 1000 nM

## Cn1c(N[C@H]2CC[C@@H](O)C2)nc2c1c(=O)n(Cc1nc3ccccc3[nH]1)c(=O)n2C [Example 99, 1-((1H-benzo[d]imidazol-2-yl)methyl)-8-((1S,3R)-3-hydroxycyclopentylamino)-3,7-dimethyl-1H-purine-2,6(3H,7H)-dione]
  IC50: 1000 to 5000 nM

## Cn1c(N2CC(O)C2)nc2c1c(=O)n(Cc1cc3ccccc3[nH]1)c(=O)n2C [Example 192, 1-((1H-indol-2-yl)methyl)-8-(3-hydroxyazetidin-1-yl)-3,7-dimethyl-1H-purine-2,6(3H,7H)-dione]
  IC50: 1000 to 5000 nM

## Cn1c(N2CCC(O)CC2)nc2c1c(=O)n(Cc1cc3cc(Cl)ccc3[nH]1)c(=O)n2C [Example 198, 1-((5-chloro-1H-indol-2-yl)methyl)-8-(4-hydroxypiperidin-1-yl)-3,7-dimethyl-1H-purine-2,6(3H,7H)-dione]
  IC50: 10 to 1000 nM

## Cn1c(Nc2cccnn2)nc2c1c(=O)n(Cc1cc3ccccc3[nH]1)c(=O)n2C [Example 201, 1-((1H-indol-2-yl)methyl)-3,7-dimethyl-8-(pyridazin-3-ylamino)-1H-purine-2,6(3H,7H)-dione]
  IC50: 10 to 1000 nM

## Cc1cccc2cc(Cn3c(=O)c4c(nc(Nc5ccncc5)n4C)n(C)c3=O)ccc12 [Example 410, 3,7-dimethyl-1-((5-methylnaphthalen-2-yl)methyl)-8-(pyridin-4-ylamino)-1H-purine-2,6(3H,7H)-dione]
  IC50: 10 to 1000 nM

## Cn1c(Nc2cccc([C@H]3C[C@@H]3C(=O)O)n2)nc2c1c(=O)n(Cc1ccc(Cl)c(Cl)c1)c(=O)n2C (racemic) [Example 299, (±)-trans-2-(6-((1-(3,4-dichlorobenzyl)-3,7-dimethyl-2,6-dioxo-2,3,6,7-tetrahydro-1H-purin-8-yl)amino)pyridin-2-yl)cyclopropanecarboxylic acid]
  IC50: 10 to 1000 nM

## Cn1c(C(C(N)=O)c2ccncc2)nc2c1c(=O)n(Cc1cc3c(Cl)cccc3[nH]1)c(=O)n2C (stereo not shown) [Example 480, 2-(1-((4-chloro-1H-indol-2-yl)methyl)-3,7-dimethyl-2,6-dioxo-2,3,6,7-tetrahydro-1H-purin-8-yl)-2-(pyridin-4-yl)acetamide]
  IC50: 10 to 1000 nM

## Cn1c(Nc2ccc(-c3nnn[nH]3)cc2)nc2c1c(=O)n(Cc1cc3c(Cl)cccc3[nH]1)c(=O)n2C [Example 397, 8-((4-(1H-tetrazol-5-yl)phenyl)amino)-1-((4-chloro-1H-indol-2-yl)methyl)-3,7-dimethyl-1H-purine-2,6(3H,7H)-dione]
  IC50: 10 to 1000 nM
